Data from PMC6930863 (CPT: Pharmacometrics & Systems Pharmacology, 2019).
“And” between values parts separate entries of the source, which are not always exact repeats. Equal entries are not always repeated. Where two headings read alike, the source gives them in different places.

Experiments:
[1] = human; cited from earlier work
[2] = system: proliferative cells (the stem cells and proliferative progenitors); assay: Translated and calibrated human system toxicology model; parameters: species or system humans; conditions: fitted to published villus area data after chemotherapy, value (% RSE)
[3] = rat
[4] = system: proliferative crypt cells, including stem cells and proliferative progenitor cells; assay type: in vivo, Sprague-Dawley rats; conditions: rat, on proliferative crypt cells, fitted to plasma citrulline
[5] = cited from earlier work
[6] = human; cited from earlier work; remark: listed apart in the source
[7] = rat, fixed to literature value; cited from earlier work

CCc1c2c(nc3ccc(O)cc13)-c1cc3c(c(=O)n1C2)COC(=O)[C@]3(O)CC [SN‐38, 7‐ethyl‐10‐hydroxy‐camptothecin]
Vm, central volume of SN-38 [1]: 200 L | kem, elimination rate constant of SN-38 [1]: 2.52 h⁻¹ | mk12, rate constant from central to peripheral 1 of SN-38 [1]: 2.6 h⁻¹ | mk21, rate constant from peripheral 1 to central of SN-38 [1]: 0.0584 h⁻¹ | kkill, cytotoxic rate by SN-38 [2]: 11.0 1/day/μM and 11.0 (0.0328) 1/day/μM | CLm, clearance of SN-38 ([3]; after i.p. irinotecan): 7.73 mL/min/kg | Vm, volume of SN-38 ([3]; after i.p. irinotecan, % RSE NA): 0.01 L/kg | kkill, cytotoxic rate by SN-38 [4]: 146 M⁻¹ s⁻¹

CCc1c2c(nc3ccc(OC(=O)N4CCC(N5CCCCC5)CC4)cc13)-c1cc3c(c(=O)n1C2)COC(=O)[C@]3(O)CC [Irinotecan]
k12, rate constant from central to peripheral 1 of irinotecan [1]: 57.8 h⁻¹ | k21, rate constant from peripheral 1 to central of irinotecan [1]: 2.58 h⁻¹ | k31, rate constant from peripheral 2 to central of irinotecan [1]: 0.0812 h⁻¹ | occurrence of ≥grade 3 diarrhea in the BI3W schedule compared with Q3W ([5]; 175 mg/m^2 days 1 and 10 every 3 weeks vs 350 mg/m^2 once every 3 weeks): significantly higher | efficacy in both dosing regimens (Q3W and BI3W) ([5]; 350 mg/m^2 Q3W vs 175 mg/m^2 BI3W): similar | Vmax, maximum rate of conversion from irinotecan to SN-38 ([3]; i.p. irinotecan, population TK model estimate): 20.6 nmol/h/kg | Dmaxp, coefficient for maximum irinotecan loss during absorption ([3]; i.p., population TK model estimate): 430 mg/kg | ka, absorption rate constant of irinotecan ([3]; i.p., % RSE NA): 10 h⁻¹

NC(=O)NCCC[C@H](N)C(=O)O [citrulline]
kout, elimination rate constant of plasma citrulline [6]: 18.6 day⁻¹ | plasma citrulline half-life [6]: 39 to 68.4 min | kout, elimination rate constant of plasma citrulline [7]: 8.52 day⁻¹
